Results taken from article PMC8070189, “Native Structure-Based Peptides as Potential Protein–Protein Interaction Inhibitors of SARS-CoV-2 Spike Protein and Human ACE2 Receptor” (Molecules, 2021).

Target: RBD domain of SARS-CoV-2 protein (Severe acute respiratory syndrome coronavirus 2, UniProt P0DTC2)
Assay type: binding

MYEEFKAED
binding affinity to RBD of S protein, in words: extremely weak binder
